Data from US20160176867A1, “MODIFIED BET-PROTEIN-INHIBITING DIHYDROQUINOXALINONES AND DIHYDROPYRIDOPYRAZINONES” (BAYER PHARMA AKTIENGESELLSCHAFT, priority 2013, published 2016).

Target: T1, BRD4 bromo domain 1 [BRD4(1)] (Homo sapiens, UniProt O60885)
T1 construct: N-terminally His6-tagged BRD4(1) (amino acids 67-152); made in house; host or cells: E. coli
Assay: BRD4/acetylated peptide H4 binding assay (TR-FRET), BRD4 bromo domain 1
Conditions: inhibition of BRD4(1)/Ac-H4 peptide interaction
In short: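 TR-FRET (665/620 nm ratio) measuring displacement of biotinylated tetra-acetylated H4 peptide from His6-BRD4(1) (aa 67-152, E. coli; typically 10 nM) at pH 7.5. Compound (11 concentrations, 0.1 nM–20 μM, duplicates) was preincubated 10 min at 22°C, then 1 h at 22°C and ≥3 h at 4°C; IC50 from 4-parameter fit normalized to DMSO and no-BRD4 controls.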

IC50	SMILES
251 nM	C[C@@H]1C(=O)N(C)c2ccc(Nc3cccc(C(=O)N[C@H]4CC[C@H](N5CCN(CC6CC6)CC5)CC4)c3)nc2N1C1CCNCC1 [Example 131, N-{trans-4-[4-(cyclo-propylmethyl)piperazin-1-yl]cyclohexyl}-3-{[(3R)-1,3-dimethyl-2-oxo-4-(piperidin-4-yl)-1,2,3,4-tetrahydropyrido[2,3-b]pyrazin-6-yl]amino}benzamide]
21 nM	C[C@@H]1C(=O)N(C)c2ccc(Nc3cccc(S(=O)(=O)N4CC5(CCC5)C4)c3)nc2N1C1CCNCC1 [Example 122, (3R)-6-{[3-(2-Azaspiro[3.3]hept-2-ylsulphonyl)phenyl]amino}-1,3-dimethyl-4-(piperidin-4-yl)-3,4-dihydropyrido[2,3-b]pyrazin-2(1H)-one]
51 nM	CC(C)CN1c2nc(Nc3cccc(S(=O)(=O)N[C@H]4CC[C@H](N5CCN(CC6CC6)CC5)CC4)c3)ccc2N(C)C(=O)[C@H]1C [Example 45, N-{trans-4-[4-(cyclopropylmethyl)-piperazin-1-yl]cyclohexyl}-3-{[(3R)-4-isobulyl-1,3-dimethyl-2-oxo-1,2,3,4-tetrahydropyrido[2,3-b]pyrazin-6-yl]amino}-benzenesulphonamide]
112 nM	COCCN1c2nc(Nc3cccc(S(=O)(=O)N4CCOCC4)c3)ccc2N(C)C(=O)C1C (racemic) [Example 49, 4-(2-methoxyethyl)-1,3-dimethyl-6-{[3-(morpholin-4-ylsulphonyl)phenyl]amino}-3,4-dihydropyrido[2,3-b]pyrazin-2(1H)-one]
144 nM	C[C@@H]1C(=O)N(C)c2ccc(Nc3cccc(C(=O)NCCN(C)C)c3)nc2N1C1CCCC1 [Example 4, 3-{[(3R)-4-Cyclopentyl-1,3-dimethyl-2-oxo-1,2,3,4-tetrahydropyrido[2,3-b]pyrazin-6-yl]amino}-N-[2-(dimethylamino)ethyl]benzamide]
46 nM	C[C@@H]1C(=O)N(C)c2ccc(Nc3cccc(S(=O)(=O)N(C)C)c3)cc2N1C1CCOCC1 [Example 7, 3-{[(3R)-1,3-Dimethyl-2-oxo-4-(tetrahydro-2H-pyran-4-yl)-1,2,3,4-tetrahydroguinoxalin-6-yl]amino}-N,N-dimethylbenzenesulphonamide]
26 nM	C[C@@H]1C(=O)N(C)c2ccc(Nc3cccc(S(=O)(=O)N[C@H]4CC[C@H](N5CCN(CC6CC6)CC5)CC4)c3)nc2N1C1CCOCC1 [Example 35, N-{trans-4-[4-(cyclopropylmethyl)-piperazin-1-yl]cyclohexyl}-3-{[(3R)-1,3-dimethyl-2-oxo-4-(tetrahydro-2H-pyran-4-yl)-1,2,3,4-tetrahydropyrido[2,3-b]pyrazin-6-yl]amino}-benzenesulphonamide]
179 nM	Cc1nnc(-c2cccc(Nc3ccc4c(n3)N(C3CCOCC3)[C@H](C)C(=O)N4C)c2)o1 [Example 134, (3R)-1,3-Dimethyl-6-{[3-(5-methyl-1,3,4-oxadiazol-2-yl)phenyl]amino}-4-(tetrahydro-2H-pyran-4-yl)-3,4-dihydropyrido[2,3-b]pyrazin-2(1H)-one]
16 nM	COc1ccc(S(=O)(=O)N2CCOCC2)cc1Nc1ccc2c(n1)N(C1CCN(C)CC1)[C@H](C)C(=O)N2C [Example 25, (3R)-6-{[2-Methoxy-5-(morpholin-4-ylsulphonyl)phenyl]amino}-1,3-dimethyl-4-(1-methylpiperidin-4-yl)-3,4-dihydropyrido[2,3-b]pyrazin-2(1H)-one]
124 nM	C[C@@H]1C(=O)N(C)c2ccc(Nc3cccc(C(=O)N(C)C)c3)cc2N1C1CCNCC1 [Example 133, 3-{[(3R)-1,3-dimethyl-2-oxo-4-(piperidin-4-yl)-1,2,3,4-tetrahydroquinoxalin-6-yl]amino}-N,N-dimethylbenzamide]
382 nM	CC(C)N1c2nc(Nc3cccc(C(=O)N4CCN(CC5CC5)CC4)c3)ccc2N(C)C(=O)[C@H]1C [Example 88, (3R)-6-[(3-{[4-(cyclo-propylmethyl)piperazin-1-yl]carbonyl}phenyl)amino]-4-isopropyl-1,3-dimethyl-3,4-dihydropyrido[2,3-b]pyrazin-2(1H)-one]
26 nM	COc1ccc(S(=O)(=O)N2CCOCC2)cc1Nc1ccc2c(n1)N(C1CCOCC1)[C@H](C)C(=O)N2C [Example 28, (3R)-6-{[2-Methoxy-5-(morpholin-4-ylsulphonyl)phenyl]amino}-1,3-dimethyl-4-(tetrahydro-2H-pyran-4-yl)-3,4-dihydropyrido[2,3-b]pyrazin-2(1H)-one]
67 nM	C[C@@H]1C(=O)N(C)c2ccc(Nc3cccc(C(=O)N4CCN(C)CC4)c3)nc2N1C1CCCC1 [Example 1, (3R)-4-Cyclopentyl-1,3-dimethyl-6-({3-[(4-methylpiperazin-1-yl)carbonyl]phenyl}amino)-3,4-dihydropyrido[2,3-b]pyrazin-2(1H)-one]
27 nM	C[C@@H]1C(=O)N(C)c2ccc(Nc3cccc(S(=O)(=O)N(C)C)c3)nc2N1C1CCOCC1 [Example 6, 3-{[(3R)-1,3-Dimethyl-2-oxo-4-(tetrahydro-2H-pyran-4-yl)-1,2,3,4-tetrahydropyrido[2,3-b]pyrazin-6-yl]amino}-N,N-dimethylbenzenesulphonamide]
16 nM	C[C@@H]1C(=O)N(C)c2ccc(Nc3cccc(S(=O)(=O)N4CCCC4)c3)nc2N1C1CCN(C)CC1 [Example 24, (3R)-1,3-Dimethyl-4-(1-methylpiperidin-4-yl)-6-{[3-(pyrrolidin-1-ylsulphonyl)phenyl]amino}-3,4-dihydropyrido[2,3-b]pyrazin-2(1H)-one]
144 nM	CC(C)N1c2nc(Nc3cccc(C(=O)N4CCN(C)CC4)c3)ccc2N(C)C(=O)[C@H]1C [Example 77, (3R)-4-isopropl-1,3-dimethyl-6-({3-[(4-methylpiperazin-1-yl)carbonyl]phenyl}-amino)-3,4-dihydro-pyrido[2,3-b]pyrazin-2(1H)-one]
18 nM	C[C@@H]1C(=O)N(C)c2ccc(Nc3cccc(S(=O)(=O)N(C)C)c3)nc2N1C1CCNCC1 [Example 123, 3-{[(3R)-1,3-dimethyl-2-oxo-4-(piperidin-4-yl)-1,2,3,4-tetrahydropyrido[2,3-b]pyrazin-6-yl]amino}-N,N-dimethylbenzene-sulphonamide]
80 nM	C[C@@H]1C(=O)N(C)c2ccc(Nc3cccc(S(=O)(=O)N[C@H]4CC[C@H](N5CCN(CC6CC6)CC5)CC4)c3)nc2N1C1CCN(C(=O)OC(C)(C)C)CC1 [Example 52, tert-butyl 4-[(3R)-6-{[3-({trans-4-[4-(cyclo-propylmethyl)piperazin-1-yl]cyclohexyl}-sulphamoyl)phenyl]amino}-1,3-dimethyl-2-oxo-2,3-dihydropyrido[2,3-b]pyrazin-4(1H)-yl]piperidine-1-carboxylate]
43 nM	COc1ccc(S(=O)(=O)N2CCN(C)CC2)cc1Nc1ccc2c(n1)N(C1CCOCC1)[C@H](C)C(=O)N2C [Example 40, (3R)-6-({2-methoxy-5-[(4-methylpiperazin-1-yl)sulphonyl]phenyl}-amino)-1,3-dimethyl-4-(tetrahydro-2H-pyran-4-yl)-3,4-dihydropyrido[2,3-b]pyrazin-2(1H)-one]
20 nM	C[C@@H]1C(=O)N(C)c2ccc(Nc3cccc(S(=O)(=O)N(C)C)c3)nc2N1C1CCN(C)CC1 [Example 41, 3-{[(3R)-1,3-dimethyl-4-(1-methylpiperidin-4-yl)-2-oxo-1,2,3,4-tetrahydropyrido[2,3-b]pyrazin-6-yl]amino}-N,N-dimethylbenzene-sulphonamide]
37 nM	C[C@@H]1C(=O)N(C)c2ccc(Nc3cccc(S(=O)(=O)N4CCN(C)CC4)c3)nc2N1C1CCNCC1 [Example 125, (3R)-1,3-dimethyl-6-({3-[(4-methylpiperazin-1-yl)sulphonyl]phenyl}amino)-4-(piperidin-4-yl)-3,4-dihydropyrido[2,3-b]pyrazin-2(1H)-one]
28 nM	C[C@@H]1C(=O)N(C)c2ccc(Nc3cccc(S(=O)(=O)N4CCN(CC(F)(F)F)CC4)c3)nc2N1C1CCOCC1 [Example 37, (3R)-1,3-dimethyl-4-(tetrahydro-2H-pyran-4-yl)-6-[(3-{[4-(2,2,2-trifluoroethyl)piperazin-1-yl]sulphonyl}phenyl)-amino]-3,4-dihydropyrido-[2,3-b]pyrazin-2(1H)-one]
